Data from patent US6576261B1, “Potentiation of inclusion complex formation of cyclodextrin derivatives” (priority 1999, dated 2003).
Converted amounts (≈) assume the structure as drawn.

What was measured:
[1] = Solubilization of choline and sodium salts of FTS and other acidic drugs by cyclodextrins
Procedure: The solid obtained thereby was heated on a boiling water bath.
In this procedure, FTS (10 mg, 28 micromoles) was dissolved with warming in ethanol (20 microliters) and an aqueous solution of sodium hydroxide (30 microliters of 1 M NaOH carbonate free, i.e., 30 micromoles) was added. […] This clear solution then was added to the solution of Pitha methyl derivative (100 mg) in isotonic phosphate buffered saline (1 ml, pH 7.4).
In these investigations, choline salts were prepared by extraction with organic solvents of mixtures of sodium salts of the anion in question and choline chloride. There mixtures were either solid or in aqueous solutions.

[2] = Solubilization of additional guests by two different hosts; format: physicochemical; conditions: for solubility at 1 week: water containing solubilising hosts, aqueous with cosolvent or surfactant or cyclodextrin, thermodynamic from solid
Description: Techniques were as described in Example 1 and water was used as a solvent. As shown in Table for Example 4, complexes of two hosts increased the solubility of retinoic acid and taxol compared to the solubility obtained with individual hosts.

[3] = Solubilization of FTS by TRIMEA and DIMEB: continuous variation and concentration dependence; format: physicochemical; conditions: water
Description: The optimum ratio of hosts was established by the continuous variation method, using techniques of Example 1 and water as a solvent. The results in Table A for Example 3 indicate that the optimum solubility is obtained when both hosts are in about equal concentrations. […]

physchem = assay: physchem
Description: A slight excess of FTS was equilibrated with water containing one host at 5% concentration or two hosts, each at 5% concentration, by rotation for a week. The suspension was then filtered through a millipore filter and the concentration of FTS in filtrate determined by ultraviolet spectrophotometry. […] The cooperativity index reflects the improvement in solubility obtained with each combination of two hosts over the solubility obtained with each of the individual hosts involved in the two-host system. It is computed by dividing the obtained solubility with two hosts by the sum of the individual solubilities obtained with each component.

[4] = Solubilization of FTS by hosts in sodium carbonate based buffer of pH 10; format: physicochemical
Procedure: (§1) no enhancement with two hosts. Water was used as the solvent for all data in the Table for Example 1. When a sodium carbonate based buffer of pH 10 was used as a solvent (conditions in which FTS is converted to its salt), the solubility of FTS in TRIMEA combined with DIMEB or in TRIMEA combined with Pitha methyl derivatives exceeds 60 mg per ml. Cooperativity, in this case, could not be calculated since, in these conditions, even solubilization by one component alone (DIMEB or Pitha methyl derivative) was over 60 mg per ml.

[5] = Solubilization of FTS by two different hosts in water (equilibration for a week, filtration, UV spectrophotometry); format: physicochemical; conditions: for solubility at 1 week: aqueous host solution, aqueous with cosolvent or surfactant or cyclodextrin, thermodynamic from solid
Procedure: as §1

[6] = Solubilization of FTS by TRIMEA and DIMEB: continuous variation and concentration dependence; format: physicochemical
[7] = host combination DIMEB - TRIMEB (first line, r7), water
[8] = host combination DIMEB - TRIMEB (printed a second time, r8), water
[9] = host combination TRIMEA - DIMEB, water
[10] = hosts Alpha Cyclodextrin - DIMEB, each 5% in water
[11] = hosts Alpha Cyclodextrin - TRIMEB, each 5% in water
[12] = hosts Beta Cyclodextrin - TRIMEB, each 5% in water
[13] = hosts DIMEB - PERM HPBCD, each 5% in water
[14] = hosts DIMEB - TRIMEB, each 5% in water
[15] = hosts DIMEB - TRIMEG, each 5% in water
[16] = hosts G2 - DIMEB, each 5% in water
[17] = hosts G2 - TRIMEB, each 5% in water
[18] = hosts G2 - TRIMEG, each 5% in water
[19] = hosts HPACD - HPBCD, each 5% in water
[20] = hosts Pitha Methyl 258 - TRIMEB, each 5% in water
[21] = hosts Pitha Methyl 322 - DIMEB, each 5% in water
[22] = hosts TRIMEA - DIMEB, each 5% in water
[23] = hosts TRIMEA - G2, each 5% in water
[24] = hosts TRIMEA - Pitha Methyl 258, each 5% in water
[25] = host combination TRIMEA - Pitha Methyl 258, water
[26] = host combination TRIMEA - RAMEB, water
[27] = host combination TRIMEA - TRIMEB, water

C[C@@H]1[C@H](O)[C@@H](C)/C=C/C=C/C=C/C=C/C=C/C=C/C=C/[C@H](O[C@@H]2O[C@H](C)[C@@H](O)[C@H](N)[C@@H]2O)C[C@@H]2O[C@](O)(C[C@@H](O)C[C@@H](O)[C@H](O)CC[C@@H](O)C[C@@H](O)CC(=O)O[C@H]1C)C[C@H](O)[C@H]2C(=O)O [Amphotericin B]
solubilization of choline salts [1]: easily solubilized | Cooperativity [2, 7]: 0.7 | Solubility [2, 7]: 0.131 mg/mL | Cooperativity [2, 8]: 0.9 | Solubility [2, 8]: 0.158 mg/mL | Cooperativity [2, 9]: 0.9 | Solubility [2, 9]: 0.185 mg/mL

CC(C)=CCCC(C)=CCCC(C)=CCSc1ccccc1C(=O)O [FTS, S-farnesylthiosalicylic acid]
FTS ([3]; TRIMEA 0 % w/w, DIMEB 5 % w/w): 1.55 mg/mL | FTS ([3]; TRIMEA 1 % w/w, DIMEB 4 % w/w): 2.29 mg/mL | FTS ([3]; TRIMEA 2 % w/w, DIMEB 3 % w/w): 2.66 mg/mL | FTS ([3]; TRIMEA 3 % w/w, DIMEB 2 % w/w): 2.79 mg/mL | FTS ([3]; TRIMEA 4 % w/w, DIMEB 1 % w/w): 2.33 mg/mL | FTS ([3]; TRIMEA 5 % w/w, DIMEB 0 % w/w): 0.19 mg/mL | single, highly methylated cyclodextrin host outperformed the current standard (physchem; 1 week): over 2 times | solubilization of choline salts [1]: easily solubilized | solubility of FTS ([4]; TRIMEA combined with DIMEB, sodium carbonate based buffer of pH 10 (FTS converted to its salt)): exceeds 60 mg per ml | solubility of FTS ([4]; TRIMEA combined with Pitha methyl derivatives, sodium carbonate based buffer of pH 10): exceeds 60 mg per ml | solubility at 1 week [5, 10]: 1.4 mg/mL (≈ 3.9 mM) | solubility at 1 week [5, 11]: 0.1 mg/mL (≈ 0.279 mM) | solubility at 1 week [5, 12]: 0.026 mg/mL (≈ 0.0725 mM) | solubility at 1 week [5, 13]: 1.1 mg/mL (≈ 3.07 mM) | solubility at 1 week [5, 14]: 2.6 mg/mL (≈ 7.25 mM) | solubility at 1 week [5, 15]: 1.4 mg/mL (≈ 3.9 mM) | solubility at 1 week [5, 16]: 2.4 mg/mL (≈ 6.69 mM) | solubility at 1 week [5, 17]: 1.1 mg/mL (≈ 3.07 mM) | solubility at 1 week [5, 18]: 1 mg/mL (≈ 2.79 mM) | solubility at 1 week [5, 19]: 0.052 mg/mL (≈ 0.145 mM) | solubility at 1 week [5, 20]: 0.95 mg/mL (≈ 2.65 mM) | solubility at 1 week [5, 21]: 1.3 mg/mL (≈ 3.63 mM) | solubility at 1 week [5, 22]: 6.6 mg/mL (≈ 18.4 mM) | solubility at 1 week [5, 23]: 3.9 mg/mL (≈ 10.9 mM) | solubility at 1 week [5, 24]: 5.7 mg/mL (≈ 15.9 mM) | Cooperativity (observed ÷ Σ components) [5, 10]: 1.0 | Cooperativity (observed ÷ Σ components) [5, 11]: 0.6 | Cooperativity (observed ÷ Σ components) [5, 12]: 0.2 | Cooperativity (observed ÷ Σ components) [5, 13]: 0.8 | Cooperativity (observed ÷ Σ components) [5, 14]: 1.8 | Cooperativity (observed ÷ Σ components) [5, 15]: 1.0 | Cooperativity (observed ÷ Σ components) [5, 16]: 1.0 | Cooperativity (observed ÷ Σ components) [5, 17]: 1.0 | Cooperativity (observed ÷ Σ components) [5, 18]: 1.0 | Cooperativity (observed ÷ Σ components) [5, 19]: 0.3 | Cooperativity (observed ÷ Σ components) [5, 20]: 1.4 | Cooperativity (observed ÷ Σ components) [5, 21]: 0.7 | Cooperativity (observed ÷ Σ components) [5, 22]: 4.1 | Cooperativity (observed ÷ Σ components) [5, 23]: 3.0 | Cooperativity (observed ÷ Σ components) [5, 24]: 9.4 | FTS ([6]; TRIMEA 2 % w/w, DIMEB 2 % w/w): 2.13 mg/mL | FTS ([6]; TRIMEA 5 % w/w, DIMEB 5 % w/w): 8.53 mg/mL | FTS ([6]; TRIMEA 10 % w/w, DIMEB 10 % w/w): 15.86 mg/mL | FTS (mg/ml) ([6]; TRIMEA 15 % w/w, DIMEB 15 % w/w): (>than 17.17, all dissolved) mg/ml

CC1=C(/C=C/C(C)=C/C=C/C(C)=C/C(=O)O)C(C)(C)CCC1 [Retinoic Acid]
single, highly methylated cyclodextrin host outperformed the current standard (physchem; 1 week): 2.5 times | Cooperativity [2, 9]: 1.45 | Cooperativity [2, 25]: 1.13 | Cooperativity [2, 26]: 1.08 | Cooperativity [2, 27]: 0.7 | solubility at 1 week [2, 9]: 0.071 mg/mL | solubility at 1 week [2, 25]: 0.052 mg/mL | solubility at 1 week [2, 26]: 0.056 mg/mL | solubility at 1 week [2, 27]: 0.012 mg/mL

CC(=O)O[C@H]1C(=O)[C@@]2(C)[C@H]([C@H](OC(=O)c3ccccc3)[C@]3(O)C[C@H](OC(=O)[C@H](O)[C@@H](NC(=O)c4ccccc4)c4ccccc4)C(C)=C1C3(C)C)[C@]1(OC(C)=O)CO[C@@H]1C[C@@H]2O [Taxol]
Solubility (physchem; 1 week): 0.38 mg/mL | solubility at 1 week (physchem; aqueous with cosolvent or surfactant or cyclodextrin, thermodynamic from solid, Solubility): 0.29 mg/mL | Cooperativity [2, 9]: 1.49 | solubility at 1 week [2, 9]: 1 mg/mL

CC(C)=CCC/C(C)=C/CC/C(C)=C/CSc1ccccc1C(=O)[O-].C[N+](C)(C)CCO [choline salt of FTS]
precipitate formation upon acidification ([1]; cyclodextrin-solubilized salts): less prone to form precipitate upon acidification than sodium salts | pH of solution ([1]; powder of choline salt of FTS with methylated beta-cyclodextrin dissolved in water, paper strip indicator): 6.5 | dissolution of the powder in water ([1]; solid powder of choline salt of FTS with methylated beta-cyclodextrin): dissolved easily and fully in water

CC(C)Cc1ccc(C(C)C(=O)O)cc1 (stereo not shown) [ibuprofen]
solubilization of choline salts [1]: easily solubilized

COc1ccc2c(c1)c(CC(=O)O)c(C)n2C(=O)c1ccc(Cl)cc1 [indomethacin]
solubilization of choline salts [1]: easily solubilized

CN1C(C(=O)Nc2ccccn2)=C(O)c2ccccc2S1(=O)=O [piroxicam]
solubilization of choline salts [1]: easily solubilized

O=C(O)c1ccccc1O [salicylic acid]
solubilization of choline salts [1]: easily solubilized

Nc1ccc(S(=O)(=O)Nc2ncccn2)cc1 [sulfadiazine]
solubilization of choline salts [1]: easily solubilized

Cc1ccc(C(=O)Nc2ccc(S(=O)(=O)O)c3cc(S(=O)(=O)O)cc(S(=O)(=O)O)c23)cc1NC(=O)c1cccc(NC(=O)Nc2cccc(C(=O)Nc3cc(C(=O)Nc4ccc(S(=O)(=O)O)c5cc(S(=O)(=O)O)cc(S(=O)(=O)O)c45)ccc3C)c2)c1 [suramin]
solubilization of choline salts [1]: easily solubilized
